Assay results reported in patent US12545652B2, “Crystalline forms of a TYK2 inhibitor” (Sareum Limited, priority 2020, dated 2026).

Columns and labels:
[1] = Rapidly cooled, reverse anti-solvent addition crystallisation at −10° C., observations and form fate by XRPD; assay type: physicochemical; conditions: for Observation: −10° C., 30 vol. anti-solvent; for Crystalline Form fate by XRPD: Reverse addition to anti-solvent at −10° C.
Description: Anti-solvent crystallisation was carried out by dissolving 2-(2,6-dichlorophenyl)-5-[4-(1,1-dioxo-1,4-thiazinane-4-carbonyl)anilino]oxazole-4-carboxamide in a solvent with heating, clarifying the solution and adding cold anti-solvent using the following method.
2-(2,6-dichlorophenyl)-5-[4-(1,1-dioxo-1,4-thiazinane-4-carbonyl)anilino]oxazole-4-carboxamide, 4×153-155 mg, was weighed into four crystallisation tubes and a different solvent (see Table 10) was charged into each. The mixtures were heated to 60° C. to achieve dissolution and then clarified.
Three anti-solvents (see Table 10), 1.5 ml, were each charged to four crystallisation tubes and cooled to −10° C.
The clarified solutions of 2-(2,6-dichlorophenyl)-5-[4-(1,1-dioxo-1,4-thiazinane-4-carbonyl)anilino]oxazole-4-carboxamide at 60° C. were charged to the cold anti-solvents in aliquots containing ca. 50 mg of the compound (into ca. 30 vol. anti-solvent) and immediate observations were noted.
The resulting mixtures were equilibrated at −10° C. for ca. 22 hours, observations were made and the solids were isolated. All isolated solids were dried in vacuo under air for ca. 20 minutes and then dried in vacuo at 45° C. for 23½ hours.

[2] = Compression stability test (10×10^4N force); assay type: physicochemical
Description: Compression stability tests were carried out on samples from two batches of crystalline Form A and samples from two batches of Crystalline Form B. One pair of samples of Form A and Form B was subjected to compression under 10×10^4N force for 23 and 23¾ hours respectively to assess the impact upon form fate and chemical stability.
The other pair of samples of Form A and Form B was subjected to similar compression pressures over an extended duration of 7 days to assess the impact of prolonged compression force upon form fate and chemical stability.

Observation ([1]; ID A1, THF/water, 4:1 10 vol., Heptane, 5 Hrs): Suspension | Observation ([1]; ID A1, THF/water, 4:1 10 vol., Heptane, 22 Hrs): Suspension | Observation ([1]; ID A1, THF/water, 4:1 10 vol., Heptane, Immediate): Gum | Observation ([1]; ID A2, THF/water, 4:1 10 vol., Benzotrifluoride, 5 Hrs): Suspension | Observation ([1]; ID A2, THF/water, 4:1 10 vol., Benzotrifluoride, 22 Hrs): Suspension | Observation ([1]; ID A2, THF/water, 4:1 10 vol., Benzotrifluoride, Immediate): Suspension | Observation ([1]; ID A3, THF/water, 4:1 10 vol., 2-Chlorobutane, 5 Hrs): Suspension | Observation ([1]; ID A3, THF/water, 4:1 10 vol., 2-Chlorobutane, 22 Hrs): Suspension | Observation ([1]; ID A3, THF/water, 4:1 10 vol., 2-Chlorobutane, Immediate): Suspension | Observation ([1]; ID B1, THF 25 vol., Heptane, 5 Hrs): Suspension | Observation ([1]; ID B1, THF 25 vol., Heptane, 22 Hrs): Suspension | Observation ([1]; ID B1, THF 25 vol., Heptane, Immediate): Suspension | Observation ([1]; ID B2, THF 25 vol., Benzotrifluoride, 5 Hrs): Suspension | Observation ([1]; ID B2, THF 25 vol., Benzotrifluoride, 22 Hrs): Suspension | Observation ([1]; ID B2, THF 25 vol., Benzotrifluoride, Immediate): Suspension | Observation ([1]; ID B3, THF 25 vol., 2-Chlorobutane, 5 Hrs): Suspension | Observation ([1]; ID B3, THF 25 vol., 2-Chlorobutane, 22 Hrs): Suspension | Observation ([1]; ID B3, THF 25 vol., 2-Chlorobutane, Immediate): Suspension | Observation ([1]; ID C1, Nitromethane 50 vol., Heptane, 5 Hrs): Bi. Susp. | Observation ([1]; ID C1, Nitromethane 50 vol., Heptane, 22 Hrs): Bi. Susp. | Observation ([1]; ID C1, Nitromethane 50 vol., Heptane, Immediate): Immiscible | Observation ([1]; ID C2, Nitromethane 50 vol., Benzotrifluoride, 5 Hrs): Solution | Observation ([1]; ID C2, Nitromethane 50 vol., Benzotrifluoride, 22 Hrs): Suspension | Observation ([1]; ID C2, Nitromethane 50 vol., Benzotrifluoride, Immediate): Solution | Observation ([1]; ID C3, Nitromethane 50 vol., 2-Chlorobutane, 5 Hrs): Solution | Observation ([1]; ID C3, Nitromethane 50 vol., 2-Chlorobutane, 22 Hrs): Haze | Observation ([1]; ID C3, Nitromethane 50 vol., 2-Chlorobutane, Immediate): Solution | Observation ([1]; ID D1, MeCN/water, 4:1 55 vol., Heptane, 5 Hrs): Bi. Susp. | Observation ([1]; ID D1, MeCN/water, 4:1 55 vol., Heptane, 22 Hrs): Bi. Susp. | Observation ([1]; ID D1, MeCN/water, 4:1 55 vol., Heptane, Immediate): Immiscible | Observation ([1]; ID D2, MeCN/water, 4:1 55 vol., Benzotrifluoride, 5 Hrs): Suspension | Observation ([1]; ID D2, MeCN/water, 4:1 55 vol., Benzotrifluoride, 22 Hrs): Suspension | Observation ([1]; ID D2, MeCN/water, 4:1 55 vol., Benzotrifluoride, Immediate): Haze | Observation ([1]; ID D3, MeCN/water, 4:1 55 vol., 2-Chlorobutane, 5 Hrs): Suspension | Observation ([1]; ID D3, MeCN/water, 4:1 55 vol., 2-Chlorobutane, 22 Hrs): Suspension | Observation ([1]; ID D3, MeCN/water, 4:1 55 vol., 2-Chlorobutane, Immediate): Haze | Crystalline Form fate by XRPD ([1]; MeCN/water, 4:1 55 vol., 2-Chlorobutane): Form B | Crystalline Form fate by XRPD ([1]; MeCN/water, 4:1 55 vol., Benzotrifluoride): Form B | Crystalline Form fate by XRPD ([1]; MeCN/water, 4:1 55 vol., Heptane): Form A | Crystalline Form fate by XRPD ([1]; Nitromethane 50 vol., 2-Chlorobutane): Form B/C mix | Crystalline Form fate by XRPD ([1]; Nitromethane 50 vol., Benzotrifluoride): Form C | Crystalline Form fate by XRPD ([1]; Nitromethane 50 vol., Heptane): Form C | Crystalline Form fate by XRPD ([1]; THF 25 vol., 2-Chlorobutane): Low cryst. Form C | Crystalline Form fate by XRPD ([1]; THF 25 vol., Benzotrifluoride): Low cryst. Form B | Crystalline Form fate by XRPD ([1]; THF 25 vol., Heptane): Low cryst. Form B + | Crystalline Form fate by XRPD ([1]; THF/water, 4:1 10 vol., 2-Chlorobutane): Low cryst. Form B | Crystalline Form fate by XRPD ([1]; THF/water, 4:1 10 vol., Benzotrifluoride): Low cryst. Form B | Crystalline Form fate by XRPD ([1]; THF/water, 4:1 10 vol., Heptane): Low cryst. Form B | HPLC assessment post-compression (chemical stability) ([2]; compression for 7 days): significant chemical degradation | HPLC assessment post-compression (chemical stability) ([2]; compression for ca. 1 day (23 / 23¾ hours), 10×10^4N): no discernible chemical degradation
Structure (SMILES): NC(=O)c1nc(-c2c(Cl)cccc2Cl)oc1Nc1ccc(C(=O)N2CCS(=O)(=O)CC2)cc1 [Form A, 2-(2,6-dichlorophenyl)-5-[4-(1,1-dioxo-1,4-thiazinane-4-carbonyl)anilino]oxazole-4-carboxamide]
XRPD examination of solids isolated post-compression (form fate) ([2]; compression for both ca. 1 and 7 days): diffraction pattern matching the input Form A but of reduced diffraction resolution
